Consider one compound from US20130261241A1, “METHODS FOR CONTROLLING WATER AMOUNT IN A POLYMER COMPOSITION OR SUBSTRATE” (Bendiner Technologies, LLC, priority 2009, published 2013).

For the compound `C/C=C/C=C/C(=O)[O-].[K+]` [Potassium sorbate, potassium sorbate], the “change in zeta potential” value (as potassium sorbate concentration is increased (0.0001% to 10%), no added sodium chloride) is recorded as “less negative”. The “effect on the zeta potential” value (concentrations below approximately 0.01%) is on record as “no effect”.
